Assay [1] is described as follows: Antiproliferative activity against VEGF-stimulated HUVEC cells assessed as reduction in cell viability at 0.5 nM preincubated for 1 hr followed by addition of VEGF measured after 72 hrs by MTT assay. It is filed as functional. The settings on record: Homo sapiens. A general note: Formazan colour is commonly taken as a measure of viable cells.
A short description of assay [2]: Antiproliferative activity against VEGF-stimulated HUVEC cells assessed as reduction in cell viability at 2 nM preincubated for 1 hr followed by addition of VEGF measured after 72 hrs by MTT assay. It is filed as functional. Conditions: Homo sapiens.

Structures are written as SMILES.

Regarding `CC(C)CC(C)NC(=O)c1ccccc1Nc1ccc2c(/C=C/c3ccccn3)n[nH]c2c1` (configuration not stated), in assay [1], the inhibition (as a rule, the drop in the measured response relative to a control, in per cent) at 0.0005 µM amounted to 55%. For the same molecule, in assay [2], the inhibition at 0.002 µM came out at 50%.
The matching figures for `CCCCCCNC(=O)c1ccccc1Nc1ccc2c(/C=C/c3ccccn3)n[nH]c2c1`: 21% and 90%.
With `CCCCN(CC)CCNC(=O)c1ccccc1Nc1ccc2c(/C=C/c3ccccn3)n[nH]c2c1`, the inhibition at 0.0005 µM in assay [1] amounted to 2%. In addition, in assay [2], the inhibition at 0.002 µM came to 6%.
Take `O=C(NNCC(F)(F)F)c1ccccc1Nc1ccc2c(/C=C/c3ccccn3)n[nH]c2c1`: in assay [1], the inhibition at 0.0005 µM is 16%. In addition, the inhibition at 0.002 µM in assay [2] is 42%.
The matching figures for `CC1(C)CC(NC(=O)c2ccccc2Nc2ccc3c(/C=C/c4ccccn4)n[nH]c3c2)C(C)(C)N1O` (configuration not stated): 15% and 8%.
In the same order, the values of `O=C(N[C@H]1CC[C@H](O)CC1)c1ccccc1Nc1ccc2c(/C=C/c3ccccn3)n[nH]c2c1` are 23% and 6%.
In the same order, the values of `CC(C)(N)CNC(=O)c1ccccc1Nc1ccc2c(/C=C/c3ccccn3)n[nH]c2c1` are 31% and 3%.
As to `O=C(O)CCNC(=O)c1ccccc1Nc1ccc2c(/C=C/c3ccccn3)n[nH]c2c1`, in assay [1], the inhibition at 0.0005 µM was 4%. Also, the inhibition at 0.002 µM in assay [2] came to 20%.
In the same order, the values of `O=C(NCc1ccncc1)c1ccccc1Nc1ccc2c(/C=C/c3ccccn3)n[nH]c2c1` are 34% and 58%.
In the same order, the values of `O=C(NCCN1CCCC1)c1ccccc1Nc1ccc2c(/C=C/c3ccccn3)n[nH]c2c1` are 40% and 31%.
On to `CCCNC(=O)c1ccccc1Nc1ccc2c(/C=C/c3ccccn3)n[nH]c2c1`, for which the inhibition at 0.0005 µM in assay [1] is 33%. Besides, in assay [2], the inhibition at 0.002 µM was found to be 64%.
In the case of `O=C(O)CNC(=O)c1ccccc1Nc1ccc2c(/C=C/c3ccccn3)n[nH]c2c1`, the inhibition at 0.0005 µM in assay [1] came to 8%. The inhibition at 0.002 µM in assay [2] came out at 23%.
The matching figures for `O=C(NCCN1CCOCC1)c1ccccc1Nc1ccc2c(/C=C/c3ccccn3)n[nH]c2c1`: 28% and 22%.
Turning to `CCCC(C)NC(=O)c1ccccc1Nc1ccc2c(/C=C/c3ccccn3)n[nH]c2c1` (configuration not stated), the inhibition at 0.0005 µM in assay [1] is 29%. Besides, in assay [2], the inhibition at 0.002 µM came out at 92%.
The matching figures for `N=C(N)CNC(=O)c1ccccc1Nc1ccc2c(/C=C/c3ccccn3)n[nH]c2c1`: 7% and -1%.
On to `Nc1ccc(CNC(=O)c2ccccc2Nc2ccc3c(/C=C/c4ccccn4)n[nH]c3c2)cc1`, for which the inhibition at 0.0005 µM in assay [1] amounted to 45%. Further, the inhibition at 0.002 µM in assay [2] was 88%.
In the same order, the values of `CC(C)(C)OC(=O)NCCNC(=O)c1ccccc1Nc1ccc2c(/C=C/c3ccccn3)n[nH]c2c1` are 78% and 60%.
For `O=C(NCC1CCC=CO1)c1ccccc1Nc1ccc2c(/C=C/c3ccccn3)n[nH]c2c1` (configuration not stated), in assay [1], the inhibition at 0.0005 µM was 37%. Moreover, the inhibition at 0.002 µM in assay [2] stood at 16%.
The matching figures for `CC(CNC(=O)c1ccccc1Nc1ccc2c(/C=C/c3ccccn3)n[nH]c2c1)c1ccccc1` (configuration not stated): 26% and 83%.
In the same order, the values of `NC(=O)C[C@@H](NC(=O)c1ccccc1Nc1ccc2c(/C=C/c3ccccn3)n[nH]c2c1)C(N)=O` are 21% and 15%.
With `CN1CCN(NC(=O)c2ccccc2Nc2ccc3c(/C=C/c4ccccn4)n[nH]c3c2)CC1`, the inhibition at 0.0005 µM in assay [1] was in the range of 19 to 38%. For the same molecule, in assay [2], the inhibition at 0.002 µM was -1%.
The matching figures for `O=C1CSC(NC(=O)c2ccccc2Nc2ccc3c(/C=C/c4ccccn4)n[nH]c3c2)=N1`: 9% and -9%.
The matching figures for `CC1CCCC(NC(=O)c2ccccc2Nc2ccc3c(/C=C/c4ccccn4)n[nH]c3c2)C1` (configuration not stated): 69% and 59%.
Turning to `CN(C)CCCCCCNC(=O)c1ccccc1Nc1ccc2c(/C=C/c3ccccn3)n[nH]c2c1`, the inhibition at 0.0005 µM in assay [1] is 42%. Further, the inhibition at 0.002 µM in assay [2] is 22%.
The matching figures for `CCC(COC)NC(=O)c1ccccc1Nc1ccc2c(/C=C/c3ccccn3)n[nH]c2c1` (configuration not stated): 1% and 65%.
In the case of `CC(C)CCC(C)NC(=O)c1ccccc1Nc1ccc2c(/C=C/c3ccccn3)n[nH]c2c1` (configuration not stated), the inhibition at 0.0005 µM in assay [1] is 6%. The inhibition at 0.002 µM in assay [2] came out at 44%.
The matching figures for `O=C(NN1CCOCC1)c1ccccc1Nc1ccc2c(/C=C/c3ccccn3)n[nH]c2c1`: 1% and 53%.
In the same order, the values of `N#CCONC(=O)c1ccccc1Nc1ccc2c(/C=C/c3ccccn3)n[nH]c2c1` are 16% and 2%.
The matching figures for `NS(=O)(=O)c1ccc(CCNC(=O)c2ccccc2Nc2ccc3c(/C=C/c4ccccn4)n[nH]c3c2)cc1`: 26% and 37%.
For `CCCCC(=O)NNC(=O)c1ccccc1Nc1ccc2c(/C=C/c3ccccn3)n[nH]c2c1`, the inhibition at 0.0005 µM in assay [1] is 40%. Also, the inhibition at 0.002 µM in assay [2] stood at 94%.
With `CC1(C)CC(NC(=O)c2ccccc2Nc2ccc3c(/C=C/c4ccccn4)n[nH]c3c2)CC(C)(C)N1`, in assay [1], the inhibition at 0.0005 µM worked out at 35%. Moreover, in assay [2], the inhibition at 0.002 µM stood at 10%.
`CCN(CC)C/C=C/CNC(=O)c1ccccc1Nc1ccc2c(/C=C/c3ccccn3)n[nH]c2c1`: in assay [1], the inhibition at 0.0005 µM was determined as 10%. Further, the inhibition at 0.002 µM in assay [2] worked out at 29%.
In the same order, the values of `CCOCCCNC(=O)c1ccccc1Nc1ccc2c(/C=C/c3ccccn3)n[nH]c2c1` are 44% and 97%.
The matching figures for `Cc1ccc(CNC(=O)c2ccccc2Nc2ccc3c(/C=C/c4ccccn4)n[nH]c3c2)cc1`: 20% and 92%.
Turning to `CC(=O)NCCNC(=O)c1ccccc1Nc1ccc2c(/C=C/c3ccccn3)n[nH]c2c1`, in assay [1], the inhibition at 0.0005 µM is 15%. In assay [2], the inhibition at 0.002 µM was 27%.
As to `CC(=O)NNC(=O)c1ccccc1Nc1ccc2c(/C=C/c3ccccn3)n[nH]c2c1`, in assay [1], the inhibition at 0.0005 µM came to 4%. The inhibition at 0.002 µM in assay [2] was 10%.
The matching figures for `O=C(NNC(=O)c1ccccc1Nc1ccc2c(/C=C/c3ccccn3)n[nH]c2c1)c1ccccc1O`: 30% and 61%.
As for `CCN1CCCC1CNC(=O)c1ccccc1Nc1ccc2c(/C=C/c3ccccn3)n[nH]c2c1` (configuration not stated), the inhibition at 0.0005 µM in assay [1] was found to be 18%. In addition, the inhibition at 0.002 µM in assay [2] was found to be 5%.
Regarding `O=C(NCC(O)c1ccccc1)c1ccccc1Nc1ccc2c(/C=C/c3ccccn3)n[nH]c2c1` (configuration not stated), the inhibition at 0.0005 µM in assay [1] was determined as 12%. Moreover, in assay [2], the inhibition at 0.002 µM came to 55%.
In the same order, the values of `CN(C)CC(C)(C)CNC(=O)c1ccccc1Nc1ccc2c(/C=C/c3ccccn3)n[nH]c2c1` are 38% and 5%.
The matching figures for `Cc1cc(NC(=O)c2ccccc2Nc2ccc3c(/C=C/c4ccccn4)n[nH]c3c2)no1`: 28% and 14%.
